According to ChEMBL document CHEMBL1201862, “PubChem BioAssay data set” (2004):
Active and inactive are the calls of the source. For most assays here, no stated cut-off is given here; in the data, actives have a measured IC50 and inactives only a lower limit.

Legend:
[1] = molecular target: T1, Ubiquitin-conjugating enzyme E2 N (Homo sapiens, UniProt P61088); type: functional
T1 sequence (P61088 whole entry): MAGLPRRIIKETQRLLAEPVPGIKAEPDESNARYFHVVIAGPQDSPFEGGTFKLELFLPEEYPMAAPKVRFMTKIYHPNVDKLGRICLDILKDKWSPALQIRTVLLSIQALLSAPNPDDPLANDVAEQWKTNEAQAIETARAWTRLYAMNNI

Nonstructural protein 1 = Nonstructural protein 1 (Influenza A virus, UniProt Q194T2); type: functional, Influenza A virus (A/California/07/2009(H1N1))
Bcl-2-related protein A1 = molecular target: T2, Bcl-2-related protein A1 (Mus musculus, UniProt Q07440); type: functional;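 further: confirmatory dose–response counterscreen on Bfl-1, used to check hits from a UBC13 polyubiquitin inhibitor campaign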
T2 sequence (Q07440 whole entry): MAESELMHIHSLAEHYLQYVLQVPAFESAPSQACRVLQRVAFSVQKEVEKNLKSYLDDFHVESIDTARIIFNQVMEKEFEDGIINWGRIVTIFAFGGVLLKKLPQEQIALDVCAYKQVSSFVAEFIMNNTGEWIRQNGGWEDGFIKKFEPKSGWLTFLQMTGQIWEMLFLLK

[2] = molecular target: T1, Ubiquitin-conjugating enzyme E2 N; type: functional; remark: listed apart in the source
[3] = molecular target: Glyceraldehyde-3-phosphate dehydrogenase (Homo sapiens, UniProt P04406)
[4] = molecular target: T3, Alkaline phosphatase, tissue-nonspecific isozyme (Homo sapiens, UniProt P05186); experiment: potency against alkaline phosphatase TNAP – biochemical, luminescent, dose response, SAR follow-up (AID 1056)
T3 sequence (P05186 whole entry): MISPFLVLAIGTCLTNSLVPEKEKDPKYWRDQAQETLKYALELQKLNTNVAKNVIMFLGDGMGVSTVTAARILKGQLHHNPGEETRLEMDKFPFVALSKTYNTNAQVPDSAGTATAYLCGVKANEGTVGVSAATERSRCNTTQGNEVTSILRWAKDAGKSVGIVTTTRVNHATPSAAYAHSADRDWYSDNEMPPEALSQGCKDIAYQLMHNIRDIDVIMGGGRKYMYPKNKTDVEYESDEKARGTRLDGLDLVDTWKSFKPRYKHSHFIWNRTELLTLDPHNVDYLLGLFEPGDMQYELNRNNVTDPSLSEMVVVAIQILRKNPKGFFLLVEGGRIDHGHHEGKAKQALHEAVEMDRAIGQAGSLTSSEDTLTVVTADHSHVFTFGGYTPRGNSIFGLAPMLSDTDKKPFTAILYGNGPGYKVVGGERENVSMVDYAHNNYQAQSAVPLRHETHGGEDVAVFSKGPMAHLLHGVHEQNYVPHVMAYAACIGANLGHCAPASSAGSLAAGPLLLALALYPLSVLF

[5] = molecular target: T4, Sentrin-specific protease 6 (Homo sapiens, UniProt Q9GZR1); type: functional;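 further: Luminescence-based dose-response confirmatory assay of SENP6 inhibition, following up an ultra-high-throughput screen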
T4 sequence (Q9GZR1 whole entry): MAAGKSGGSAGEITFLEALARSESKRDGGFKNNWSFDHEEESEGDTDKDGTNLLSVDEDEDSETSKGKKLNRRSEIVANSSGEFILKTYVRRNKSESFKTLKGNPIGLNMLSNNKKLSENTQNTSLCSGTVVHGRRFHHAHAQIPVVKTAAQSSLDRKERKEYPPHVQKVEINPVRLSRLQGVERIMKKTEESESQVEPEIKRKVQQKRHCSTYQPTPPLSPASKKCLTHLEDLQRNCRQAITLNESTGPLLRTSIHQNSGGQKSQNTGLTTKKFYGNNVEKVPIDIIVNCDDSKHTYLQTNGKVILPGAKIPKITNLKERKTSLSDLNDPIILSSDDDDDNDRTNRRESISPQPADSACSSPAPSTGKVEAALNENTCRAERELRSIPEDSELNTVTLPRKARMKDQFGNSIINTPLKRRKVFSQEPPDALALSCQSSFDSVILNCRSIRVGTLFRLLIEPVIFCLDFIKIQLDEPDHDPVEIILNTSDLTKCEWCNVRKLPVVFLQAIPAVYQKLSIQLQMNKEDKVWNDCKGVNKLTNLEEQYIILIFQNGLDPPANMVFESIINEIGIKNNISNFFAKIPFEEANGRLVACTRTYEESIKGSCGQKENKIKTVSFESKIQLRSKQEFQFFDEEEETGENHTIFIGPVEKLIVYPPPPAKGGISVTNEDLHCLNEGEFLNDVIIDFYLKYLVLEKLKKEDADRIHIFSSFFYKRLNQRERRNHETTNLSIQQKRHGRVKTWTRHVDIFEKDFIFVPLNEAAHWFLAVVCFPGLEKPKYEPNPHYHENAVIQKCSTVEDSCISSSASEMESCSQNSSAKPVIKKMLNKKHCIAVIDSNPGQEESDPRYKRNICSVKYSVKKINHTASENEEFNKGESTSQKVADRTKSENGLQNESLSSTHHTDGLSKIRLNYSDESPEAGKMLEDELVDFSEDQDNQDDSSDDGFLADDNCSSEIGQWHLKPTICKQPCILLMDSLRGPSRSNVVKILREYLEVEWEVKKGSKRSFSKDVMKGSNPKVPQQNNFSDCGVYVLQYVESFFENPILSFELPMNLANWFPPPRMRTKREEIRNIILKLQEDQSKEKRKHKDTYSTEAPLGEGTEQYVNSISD

[6] = molecular target: T5, Sentrin-specific protease 8 (Homo sapiens, UniProt Q96LD8); type: functional;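 further: luminescence read-out of SENP8 inhibition, dose-response confirmation following an ultra-high-throughput screen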
T5 sequence (Q96LD8 whole entry): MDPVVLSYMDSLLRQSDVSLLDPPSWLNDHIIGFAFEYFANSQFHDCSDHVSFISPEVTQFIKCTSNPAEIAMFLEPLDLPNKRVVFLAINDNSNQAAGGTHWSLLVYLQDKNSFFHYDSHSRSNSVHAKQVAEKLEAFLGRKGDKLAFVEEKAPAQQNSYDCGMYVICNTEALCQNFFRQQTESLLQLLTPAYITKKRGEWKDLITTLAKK

Caspase-3 = molecular target: T6, Caspase-3 (Homo sapiens, UniProt P42574); type: functional;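 further: Dose-response selectivity test against caspase-3 for candidate inhibitors of sentrin-specific proteases (SENPs)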
T6 sequence (P42574 whole entry): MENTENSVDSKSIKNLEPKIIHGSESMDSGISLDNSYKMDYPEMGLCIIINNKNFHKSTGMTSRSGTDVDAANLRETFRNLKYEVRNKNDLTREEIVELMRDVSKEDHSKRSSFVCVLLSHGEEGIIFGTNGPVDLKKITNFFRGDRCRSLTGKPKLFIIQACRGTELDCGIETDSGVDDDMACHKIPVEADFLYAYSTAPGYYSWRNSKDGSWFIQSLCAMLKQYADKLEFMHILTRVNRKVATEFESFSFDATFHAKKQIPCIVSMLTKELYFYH

[7] = molecular target: T7, Sentrin-specific protease 7 (Homo sapiens, UniProt Q9BQF6); type: functional;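 further: Luminescence-based dose-response confirmation of ultra-high-throughput screening hits, measuring inhibition of SENP7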
T7 sequence (Q9BQF6 whole entry): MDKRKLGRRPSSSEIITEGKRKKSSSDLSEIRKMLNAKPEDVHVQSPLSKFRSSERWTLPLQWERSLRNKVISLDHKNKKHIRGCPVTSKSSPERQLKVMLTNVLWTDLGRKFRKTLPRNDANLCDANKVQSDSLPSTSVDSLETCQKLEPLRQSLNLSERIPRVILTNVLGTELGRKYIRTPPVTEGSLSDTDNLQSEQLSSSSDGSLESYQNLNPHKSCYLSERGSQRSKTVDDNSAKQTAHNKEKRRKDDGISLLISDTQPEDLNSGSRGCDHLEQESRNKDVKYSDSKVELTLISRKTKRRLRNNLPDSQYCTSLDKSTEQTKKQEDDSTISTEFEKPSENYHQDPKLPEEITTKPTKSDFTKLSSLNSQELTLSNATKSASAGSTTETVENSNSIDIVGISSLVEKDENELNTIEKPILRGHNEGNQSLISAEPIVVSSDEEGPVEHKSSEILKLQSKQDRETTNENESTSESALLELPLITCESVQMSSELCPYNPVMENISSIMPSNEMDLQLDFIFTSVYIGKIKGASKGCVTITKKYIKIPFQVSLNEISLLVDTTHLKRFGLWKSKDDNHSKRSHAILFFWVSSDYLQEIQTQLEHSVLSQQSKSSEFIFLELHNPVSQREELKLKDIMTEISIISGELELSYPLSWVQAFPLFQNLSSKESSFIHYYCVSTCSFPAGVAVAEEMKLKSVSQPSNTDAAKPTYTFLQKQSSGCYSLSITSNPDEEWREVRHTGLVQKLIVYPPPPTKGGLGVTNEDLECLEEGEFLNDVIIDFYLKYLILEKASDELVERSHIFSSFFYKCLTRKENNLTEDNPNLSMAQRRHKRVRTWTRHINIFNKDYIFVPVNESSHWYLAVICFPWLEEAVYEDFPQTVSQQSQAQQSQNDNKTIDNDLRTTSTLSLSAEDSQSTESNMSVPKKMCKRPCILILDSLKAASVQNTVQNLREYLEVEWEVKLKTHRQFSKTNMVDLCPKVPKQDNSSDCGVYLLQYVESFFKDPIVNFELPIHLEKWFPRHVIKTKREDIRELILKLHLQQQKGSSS

Vero [8] = experiment: cells; type: functional; conditions: Chlorocebus sabaeus
[9] = tested on: Streptococcus sp. 'group A'; experiment: Streptococcus pyogenes SK(-)GAS viability under kanamycin – luminescence, BacTiterGlo, confirmation, counter-screen for streptokinase expression inhibitor project, dose response (AID 1900); type: functional, organism-based
[10] = molecular target: T8, Short transient receptor potential channel 4 (Mus musculus, UniProt Q9QUQ5); experiment: calcium entry via TRPC4 opening agents – cell-based, HEK293 TRPC4/mu-opioid, Fluo-4 calcium, dose response (AID 434937); type: functional
T8 sequence (Q9QUQ5 whole entry): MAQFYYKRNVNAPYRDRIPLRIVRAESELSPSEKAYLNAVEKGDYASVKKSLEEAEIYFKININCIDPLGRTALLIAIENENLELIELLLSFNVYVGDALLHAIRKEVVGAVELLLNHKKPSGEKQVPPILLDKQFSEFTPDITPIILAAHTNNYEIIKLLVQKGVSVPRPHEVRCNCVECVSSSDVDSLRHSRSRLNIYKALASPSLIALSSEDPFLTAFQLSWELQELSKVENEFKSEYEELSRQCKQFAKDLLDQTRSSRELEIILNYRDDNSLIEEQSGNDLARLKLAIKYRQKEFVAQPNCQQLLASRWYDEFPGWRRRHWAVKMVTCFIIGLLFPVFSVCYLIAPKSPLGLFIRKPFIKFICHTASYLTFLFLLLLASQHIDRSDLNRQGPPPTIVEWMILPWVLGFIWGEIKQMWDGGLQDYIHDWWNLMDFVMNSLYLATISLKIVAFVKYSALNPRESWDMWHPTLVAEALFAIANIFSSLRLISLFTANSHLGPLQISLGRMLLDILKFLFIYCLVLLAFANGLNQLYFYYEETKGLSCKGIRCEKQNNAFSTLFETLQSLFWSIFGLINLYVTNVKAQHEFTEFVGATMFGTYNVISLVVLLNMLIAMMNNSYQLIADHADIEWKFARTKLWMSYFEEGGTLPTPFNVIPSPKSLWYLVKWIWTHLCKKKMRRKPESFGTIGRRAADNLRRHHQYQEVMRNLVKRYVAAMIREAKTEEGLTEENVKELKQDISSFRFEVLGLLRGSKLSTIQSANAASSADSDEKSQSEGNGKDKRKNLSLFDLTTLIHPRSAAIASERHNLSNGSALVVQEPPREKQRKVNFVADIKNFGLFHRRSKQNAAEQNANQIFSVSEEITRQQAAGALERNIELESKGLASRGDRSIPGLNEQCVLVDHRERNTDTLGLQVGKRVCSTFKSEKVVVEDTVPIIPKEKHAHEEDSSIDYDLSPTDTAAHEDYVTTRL

Vero [11] = experiment: cells; type: functional, cell-based; conditions: Chlorocebus sabaeus
Streptococcus = experiment: GAS UMAA2166 growth inhibition – luminescence, BacTiterGlo, counter-screen for streptokinase expression inhibitor project, dose response (AID 1915); type: functional, organism-based;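 further: potency for reduction of bacterial viability or growth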
H9c2 = experiment: cells; type: functional, cell-based; conditions: Rattus norvegicus, H9c2, Myocardium;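 further: confirmatory concentration-response retest of ultra-high-throughput screening hits for modulation of myocardial damage; cell death induced by hydrogen peroxide oxidative stress; compound pretreatment for 60 min then peroxide exposure for 2 h; potency is for protecting the cells against peroxide damage rather than for killing them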

Sequence of Glyceraldehyde-3-phosphate dehydrogenase (P04406 whole entry): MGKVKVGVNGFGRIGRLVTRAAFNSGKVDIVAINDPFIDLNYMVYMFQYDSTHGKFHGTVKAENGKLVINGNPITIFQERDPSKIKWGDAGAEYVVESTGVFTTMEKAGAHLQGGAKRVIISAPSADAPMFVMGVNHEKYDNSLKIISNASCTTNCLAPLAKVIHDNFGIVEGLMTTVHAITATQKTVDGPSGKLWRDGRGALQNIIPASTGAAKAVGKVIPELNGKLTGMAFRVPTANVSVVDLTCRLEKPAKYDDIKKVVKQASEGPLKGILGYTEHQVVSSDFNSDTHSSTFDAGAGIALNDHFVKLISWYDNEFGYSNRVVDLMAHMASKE
Sequence of Nonstructural protein 1 (Q194T2 whole entry): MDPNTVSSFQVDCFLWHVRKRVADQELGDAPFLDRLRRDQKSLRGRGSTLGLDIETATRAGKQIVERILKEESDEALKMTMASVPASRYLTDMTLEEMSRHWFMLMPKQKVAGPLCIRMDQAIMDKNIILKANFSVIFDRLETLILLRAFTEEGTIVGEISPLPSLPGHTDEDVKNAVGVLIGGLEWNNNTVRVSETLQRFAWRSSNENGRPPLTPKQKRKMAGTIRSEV

Oc1cc(Nc2ccncc2)cc2cccnc12
IC50 [1]: 8.54 µM (active) | IC50 (Nonstructural protein 1): 5.11 µM (active) | IC50 (Bcl-2-related protein A1): > 20 µM (inactive) | IC50 [2]: 6.9 µM (active)

O=C1c2cccc3cccc(c23)N1Cc1ccc(F)cc1
IC50 [1]: 6.78 µM (active) | IC50 (Bcl-2-related protein A1): > 20 µM (inactive) | IC50 [2]: 5.15 µM (active)

COc1ccc(S(=O)(=O)n2cc(C(N)=O)c3ccccc32)cc1
IC50 [3]: > 100 µM (not active) | IC50 [4]: > 100 µM (inactive)

COc1cccc(NC(=O)C(S)=NC2CCCCC2)c1
IC50 [5]: 20.8 µM (active) | IC50 [6]: 23 µM (active) | IC50 (Caspase-3): 17.9 µM (active) | IC50 [7]: 5.39 µM (active)

CCCOc1ccc(C(=O)NC(=S)NNC(=O)c2c(-c3ccccc3)noc2C)cc1
CC50 (Vero [8]): 12.1 µM (active) | EC50 [9]: 0.137 µM (active) | EC50 [10]: 2.66 µM (active) | IC50 (Vero [11]): > 25 µM (active) | EC50 (Streptococcus): 0.596 µM (active)

CN(Cc1ccccc1)C(=O)COC(=O)c1cc(-c2ccc(Cl)s2)nc2ccccc12
IC50 [1]: 11.8 µM (active) | IC50 (Bcl-2-related protein A1): > 20 µM (inactive) | IC50 [2]: > 20 µM (inactive)

COC(=O)c1ccc(N=Nc2ccccc2)cc1
IC50 [5]: 13.2 µM (active) | IC50 [6]: 20.2 µM (active) | IC50 (Caspase-3): 11.6 µM (active) | IC50 [7]: 5.11 µM (active)

O=S(=O)(Nc1ccc2ncccc2c1)c1ccccc1OC(F)(F)F
IC50 [3]: > 100 µM (not active) | IC50 [4]: > 100 µM (inactive)

COc1ccc(Cl)cc1C(=O)Nc1ccccc1N1CCN(C)CC1
EC50 [10]: 5.96 µM (active)

CCOC(=O)C1=C(COC(=O)c2cc(OC)c(OC)c(OC)c2)NC(=O)NC1C (stereo unspecified)
IC50 [1]: 6.85 µM (active) | IC50 (Bcl-2-related protein A1): > 20 µM (inactive) | IC50 (H9c2): 11.2 µM (active) | IC50 [2]: 8.55 µM (active)

COc1ccccc1NC(=O)CCSc1ccc(C)cc1
IC50 [5]: 34.9 µM (active) | IC50 [6]: 37 µM (active) | IC50 (Caspase-3): 18.1 µM (active) | IC50 [7]: 11.2 µM (active)
